Measurements as given in patent US20130252930A1 (BIOMARIN PHARMACEUTICAL INC., priority 2010, published 2013).
Where two headings read alike, the source gives them in different places.

Key:
[1] = target: T1, CYP17 (human testicular microsome) (Homo sapiens, UniProt P05093); assay: CYP17 enzymatic assay (% inhibition at 10 nM), version 1 (Biological Example 5); type: biochemical
T1 construct: using microsomal fraction from human testis (Celsis Cat #S00110) as the enzyme source; tissue Celsis S00110; host or cells: human testis microsomal fraction
T1 sequence (P05093 1-508): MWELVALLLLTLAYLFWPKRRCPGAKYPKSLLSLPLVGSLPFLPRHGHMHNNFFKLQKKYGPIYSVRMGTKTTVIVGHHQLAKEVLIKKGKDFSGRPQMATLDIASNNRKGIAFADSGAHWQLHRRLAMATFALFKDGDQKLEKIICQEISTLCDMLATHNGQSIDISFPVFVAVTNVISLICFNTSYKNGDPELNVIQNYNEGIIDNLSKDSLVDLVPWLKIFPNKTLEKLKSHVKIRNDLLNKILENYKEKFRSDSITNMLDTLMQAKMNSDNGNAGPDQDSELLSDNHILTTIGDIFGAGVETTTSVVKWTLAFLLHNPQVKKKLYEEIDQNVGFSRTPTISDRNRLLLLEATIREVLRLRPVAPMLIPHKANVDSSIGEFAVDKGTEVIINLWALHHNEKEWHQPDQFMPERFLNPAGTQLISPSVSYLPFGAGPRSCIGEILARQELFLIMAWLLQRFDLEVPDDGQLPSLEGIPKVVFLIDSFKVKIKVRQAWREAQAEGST

[2] = target: T2, Cyp21 enzyme (Human HEK 293-Cyp21 stable transfected cells) (Homo sapiens, UniProt P08686); assay: CYP21-HEK293 enzymatic assay (IC50) (Biological Example 11); type: cell-based; settings: HEK 293-Cyp21 stable transfected cells; read-out: CYP21-HEK293 enzymatic assay IC50 (Biological Example No. 11)
T2 construct: expressed in transfected cells
T2 sequence (P08686 1-495): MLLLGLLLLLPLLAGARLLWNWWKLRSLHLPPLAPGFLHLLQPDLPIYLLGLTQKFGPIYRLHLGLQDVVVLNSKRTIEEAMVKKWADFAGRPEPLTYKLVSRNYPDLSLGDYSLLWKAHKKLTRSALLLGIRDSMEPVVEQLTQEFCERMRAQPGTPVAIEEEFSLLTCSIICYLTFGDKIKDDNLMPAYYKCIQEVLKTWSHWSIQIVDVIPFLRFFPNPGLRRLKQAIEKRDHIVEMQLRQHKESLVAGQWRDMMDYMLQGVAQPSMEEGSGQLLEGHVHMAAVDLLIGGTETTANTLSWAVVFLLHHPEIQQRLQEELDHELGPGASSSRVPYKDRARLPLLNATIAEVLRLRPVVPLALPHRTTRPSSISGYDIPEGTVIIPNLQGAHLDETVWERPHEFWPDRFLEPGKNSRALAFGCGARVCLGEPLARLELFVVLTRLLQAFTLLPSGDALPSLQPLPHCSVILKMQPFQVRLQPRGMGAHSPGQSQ

[3] = target: T1, CYP17 (human testicular microsome); assay: CYP17 enzymatic assay (% inhibition at 1 nM) (Biological Example 12); type: biochemical
[4] = Human liver microsome stability assay (Biological Example 8b); settings: liver microsomes, pH 7.4
Method: The reaction was started with addition of excess NADPH (5 mg/mL, 15 μL in 0.1 M potassium phosphate buffer, 1.0 mM EDTA, pH 7.4), the total volume is 45 μL (compound final concentration was 1 μM). […] 50 μL of the supernatant was transferred from each well into a 96-well sample plate containing 50 μL of ultra-pure water (Millipore) for LC-MS/MS analysis.

[5] = target: T1, CYP17 (human testicular microsome); assay: CYP17 enzymatic assay (IC50) (Biological Example 4); type: biochemical; settings: human testicular microsome
Method: The assays were performed in 96-well plates. Typical assays were carried out in total 100 μL volume that included test compounds at designated concentrations, 1× reaction buffer, 0.5 mM NADPH, 1 μM 17α-hydroxypregnenolone, and 2.5 μL of diluted human testicular microsome (Celsis. Cat #S00110). Reaction without test compound served as positive control. Reactions were allowed to incubate at 37° C. for 90 minutes with gentle shaking. The reaction was stopped by directly applying the enzymatic reaction mixture to ELISA plate for evaluation of DHEA concentration according to manufacturer's protocol (IBL America). A standard curve (OD450 vs. DHEA concentration) was generated using purified DHEA.

CYP17 (H295R cells) = target: T3, CYP17 (H295R cells) (Homo sapiens, UniProt P05093); assay: CYP17 cellular assay (IC50), testosterone in H295R cells (Biological Example 7); type: cell-based; settings: H295R cells
T3 construct: endogenous in cells; host or cells: H295R cells
T3 sequence (P05093 1-508): T1 sequence (P05093 1-508)
Method: The assays were performed in 96-well plates. Typically H295R cells were seeded at 4.5×10^4 cells/well in 100 μL Growth Medium containing DMEM/F-12 (Gibco/Invitrogen; 11330-032), 2.5% Nu-Serum (BD Bioscience; 355100) and ITS (BD Bioscience; 354352), and cultured at 37° C., 5% CO2 for 24 hr. The next day, media were carefully removed and cells were washed twice with 200 μL 1×HBSS++. Test compounds were then added to the cells at 100, 10, 1, 0.1 nM final concentrations in 125 μL volume per well in serum-free media containing DMEM/F-12 and ITS+ Premix (BD Bioscience; 354352) with 0.1% methanol. Serum-free media with 0.1% methanol without test compound was used as control. Cells were incubated with compounds at 37° C. for additional 24 hours, and the cultured media from each compound treated well was harvested for measurement of testosterone concentration by ELISA according to manufacturer's instruction (Assay Design). Testosterone concentration of each sample was plotted vs. the concentration of the test compounds.

[6] = read-out: Biological Example No. 4: CYP17 enzymatic assay IC50
[7] = compound at 1 nM, read-out: Biological Example No. 12: CYP17 enzymatic assay % inhibition at 1 nM
[8] = testosterone, read-out: Biological Example No. 7: CYP17 cellular assay IC50
[9] = compound at 1 nM, read-out: CYP17 enzymatic assay % inhibition at 1 nM (Biological Example No. 12)
[10] = testosterone, read-out: CYP17 cellular assay IC50 (Biological Example No. 7)
[11] = 10 nM compound, DHEA by ELISA, read-out: Biological Example No. 5: CYP17 percent inhibition at 10 nM (version 1)
[12] = DHEA by ELISA, read-out: Biological Example No. 4: CYP17 enzymatic assay IC50
[13] = testosterone by ELISA, 24 hours, read-out: Biological Example No. 7: CYP17 cellular assay IC50

| Structure (SMILES) | half-life at 1 μM [4] | IC50 [5, 6] | IC50 (CYP17 (H295R cells); [8]) | inhibition at 0.001 µM [3, 9] | IC50 (CYP17 (H295R cells); [10]) | also measured |
| --- | --- | --- | --- | --- | --- | --- |
| CC1C[C@H]2C3=CC=C(c4cccnc4)[C@@]3(C)CC[C@@H]2[C@@]2(C)C=CC(=O)C=C12 (stereo partly drawn) [Compound 349, (10R,13S)-6,10,13-trimethyl-17-(pyridin-3-yl)-6,7,8,9,10,11,12,13-octahydro-3H-cyclopenta[a]phenanthren-3-one] | 1 to 50 min |  |  |  |  | inhibition at 0.01 µM ([1]; test compound at 10 nM, read-out: CYP17 enzymatic assay percent inhibition at 10 nM (Biological Example No. 5)): > 80%; IC50 [2]: < 10 nM; inhibition at 0.001 µM ([3]; test compound at 1 nM, read-out: CYP17 enzymatic assay percent inhibition at 1 nM (Biological Example No. 12)): > 50% |
| C[C@]12CCC(=O)C=C1C=CC1C2CC[C@]2(C)C(c3cncc(F)c3)=CCC12 (stereo partly drawn) [Compound 409, (10R,13S)-17-(5-fluoropyridin-3-yl)-10,13-dimethyl-8,9,10,11,12,13,14,15-octahydro-1H-cyclopenta[a]phenanthren-3(2H)-one] | 1 to 50 min | < 11 nM | < 15 nM |  |  | inhibition at 0.001 µM [3, 7]: > 50% |
| C[C@]12CC(O)CC1CCC1C2CC[C@]2(C)C(c3cccnc3)=CCC12 (stereo partly drawn) [Compound 399, (3aS,5aS)-3a,5a-dimethyl-6-(pyridin-3-yl)-1,2,3,3a,3b,4,5,5a,8,8a,8b,9,10,10a-tetradecahydrodicyclopenta[a,f]naphthalen-2-ol] | 1 to 50 min | < 11 nM | < 15 nM |  |  | inhibition at 0.001 µM [3, 7]: > 50% |
| CN(C)CC(=O)O[C@H]1CC[C@@]2(C)C(=CC[C@H]3C4=CC=C(c5cccnc5)[C@@]4(C)CC[C@@H]32)C1 [195′, (3S,10R,13S)-10,13-dimethyl-17-(pyridin-3-yl)-2,3,4,7,8,9,10,11,12,13-decahydro-1H-cyclopenta[a]phenanthren-3-yl 2-(dimethylamino)acetate] |  |  |  | > 50% | 15 to 100 nM |  |
| C[C@]12CCC(F)CC1=CC[C@@H]1[C@@H]2CC[C@]2(C)C(c3cncc(F)c3)=CC[C@@H]12 (stereo partly drawn) [Compound 401, 3-fluoro-5-((10R,13S)-3-fluoro-10,13-dimethyl-2,3,4,7,8,9,10,11,12,13,14,15-dodecahydro-1H-cyclopenta[a]phenanthren-17-yl)pyridine] | > 50 min | < 11 nM | < 15 nM |  |  |  |
| CC(C)C(=O)N[C@@H]1CC[C@@]2(C)C(CCC3C2CC[C@]2(C)C(c4cccnc4)=CCC32)C1 (stereo partly drawn) [Compound 216, N-((3R,10S,13S)-10,13-dimethyl-17-(pyridin-3-yl)-2,3,4,5,6,7,8,9,10,11,12,13,14,15-tetradecahydro-1H-cyclopenta[a]phenanthren-3-yl)isobutyramide] | 1 to 50 min |  |  | > 50% | < 15 nM |  |
| C[C@]12CC[C@H]3[C@@H](CCC45CC4C(O)CC[C@]35C)[C@@H]1CC=C2c1cccnc1 (stereo partly drawn) [Compound 314, (4aR,6aS)-4a,6a-dimethyl-7-(pyridin-3-yl)-1a,2,3,4,4a,4b,5,6,6a,9,9a,9b,10,11-tetradecahydro-1H-cyclopenta[a]cyclopropa[j]phenanthren-2-ol] |  |  |  | > 50% | < 15 nM | IC50 ([5]; read-out: CYP17 enzymatic assay IC50 (Biological Example No. 4)): < 11 nM |
| CC1C(O)CC[C@@]2(C)C1CC[C@@H]1[C@@H]2CC[C@]2(C)C(c3cccnc3)=CC[C@@H]12 (stereo partly drawn) [Compound 304, (10R,13S)-4,10,13-trimethyl-17-(pyridin-3-yl)-2,3,4,5,6,7,8,9,10,11,12,13,14,15-tetradecahydro-1H-cyclopenta[a]phenanthren-3-ol] |  | < 11 nM | < 15 nM |  |  | inhibition at 0.001 µM [3, 7]: 10 to 50% |
| C[C@]1(O)CC[C@@]2(C)C(CCC3C2CC[C@]2(C)C(c4cncc(F)c4)=CCC32)C1 (stereo partly drawn) [Compound 264, (3S,10S,13S)-17-(5-fluoropyridin-3-yl)-3,10,13-trimethyl-2,3,4,5,6,7,8,9,10,11,12,13,14,15-tetradecahydro-1H-cyclopenta[a]phenanthren-3-ol] | 1 to 50 min | < 11 nM | < 15 nM |  |  |  |
| CC(=O)N[C@@H]1CC[C@@]2(C)C(=CCC3C4=CC=C(c5cccnc5)[C@@]4(C)CCC32)C1 (stereo partly drawn) [Compound 243, N-((3R,10R,13S)-10,13-dimethyl-17-(pyridin-3-yl)-2,3,4,7,8,9,10,11,12,13-decahydro-1H-cyclopenta[a]phenanthren-3-yl)acetamide] | 1 to 50 min |  |  | > 50% | < 15 nM |  |
| C[C@]12CC[C@H]3[C@@H](CC=C4C[C@@H](O)CC[C@@]43C)C1=CC=C2c1cncc(C(F)F)c1 [Compound 272, (3S,10R,13S)-17-(5-(difluoromethyl)pyridin-3-yl)-10,13-dimethyl-2,3,4,7,8,9,10,11,12,13-decahydro-1H-cyclopenta[a]phenanthren-3-ol] |  |  | 15 to 100 nM |  |  | inhibition at 0.001 µM [3, 7]: < 10% |
| CC(=O)N[C@@H]1CC[C@@]2(C)C(CCC3C2CC[C@]2(C)C(c4cnccc4C)=CCC32)C1 (stereo partly drawn) [Compound 21, N-((3R,10S,13S)-10,13-dimethyl-17-(4-methylpyridin-3-yl)-2,3,4,5,6,7,8,9,10,11,12,13,14,15-tetradecahydro-1H-cyclopenta[a]phenanthren-3-yl)acetamide] | 1 to 50 min |  |  | > 50% | < 15 nM |  |
| Cc1ccncc1C1=CC=C2[C@@H]3CC=C4C[C@@H](O)CC[C@]4(C)[C@H]3CC[C@]12C [Compound 190, (3S,10R,13S)-10,13-dimethyl-17-(4-methylpyridin-3-yl)-2,3,4,7,8,9,10,11,12,13-decahydro-1H-cyclopenta[a]phenanthren-3-ol] | 1 to 50 min |  |  | > 50% | 15 to 100 nM |  |
| CC(=O)O[C@H]1CC[C@@]2(C)[C@@H](CC[C@@H]3[C@@H]2CC[C@]2(C)C(n4ccnn4)=CC[C@@H]32)C1 [Compound 130, (3S,5S,8R,9S,10S,13S,14S)-10,13-dimethyl-17-(1H-1,2,3-triazol-1-yl)-2,3,4,5,6,7,8,9,10,11,12,13,14,15-tetradecahydro-1H-cyclopenta[a]phenanthren-3-yl acetate] |  |  |  |  |  | inhibition at 0.01 µM [1, 11]: > 80%; IC50 [5, 12]: < 11 nM; IC50 (CYP17 (H295R cells); [13]): < 15 nM |
| C[C@]12CCCC(=O)C1CC[C@@H]1[C@@H]2CC[C@]2(C)C(c3cccnc3)=CC[C@@H]12 (stereo partly drawn) [Compound 89, (10R,13S)-10,13-dimethyl-17-(pyridin-3-yl)-2,3,5,6,7,8,9,11,12,13,14,15-dodecahydro-1H-cyclopenta[a]phenanthren-4(10H)-one] |  |  |  |  |  | inhibition at 0.01 µM [1, 11]: > 80%; IC50 [5, 12]: < 11 nM; IC50 (CYP17 (H295R cells); [13]): < 15 nM |
